Assay results taken from publication PMC7006677 (Pharmacological reports : PR, 2020).
pIC50: −log10 of the molar value.

Legend:
Format in all cases: cell-based
[1] = molecular target: T1, GABAA receptor (α1β3γ2L), β3 subunit (Homo sapiens, UniProt P14867+P18507+P28472); assay: two-electrode voltage clamp
[2] = molecular target: T1, GABAA receptor (α1β3γ2L), β3 subunit; assay: two-electrode voltage clamp; remark: listed apart in the source
[3] = molecular target: T1, GABAA receptor (α1β3γ2L), β3 subunit; assay: two-electrode voltage clamp in oocytes

T1 sequence (P28472 26-473): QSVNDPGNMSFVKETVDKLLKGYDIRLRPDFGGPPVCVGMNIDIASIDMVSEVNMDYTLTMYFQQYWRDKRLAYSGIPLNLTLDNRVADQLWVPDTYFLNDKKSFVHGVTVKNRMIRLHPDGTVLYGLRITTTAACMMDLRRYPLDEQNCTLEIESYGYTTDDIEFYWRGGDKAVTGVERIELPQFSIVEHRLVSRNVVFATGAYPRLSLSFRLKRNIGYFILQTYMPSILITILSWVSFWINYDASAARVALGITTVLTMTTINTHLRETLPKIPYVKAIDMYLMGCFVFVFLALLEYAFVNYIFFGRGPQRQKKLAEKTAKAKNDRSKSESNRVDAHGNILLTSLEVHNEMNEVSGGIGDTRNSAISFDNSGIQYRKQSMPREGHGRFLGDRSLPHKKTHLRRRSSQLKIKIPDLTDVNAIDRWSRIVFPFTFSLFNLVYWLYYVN
T1 sequence (P14867 28-456): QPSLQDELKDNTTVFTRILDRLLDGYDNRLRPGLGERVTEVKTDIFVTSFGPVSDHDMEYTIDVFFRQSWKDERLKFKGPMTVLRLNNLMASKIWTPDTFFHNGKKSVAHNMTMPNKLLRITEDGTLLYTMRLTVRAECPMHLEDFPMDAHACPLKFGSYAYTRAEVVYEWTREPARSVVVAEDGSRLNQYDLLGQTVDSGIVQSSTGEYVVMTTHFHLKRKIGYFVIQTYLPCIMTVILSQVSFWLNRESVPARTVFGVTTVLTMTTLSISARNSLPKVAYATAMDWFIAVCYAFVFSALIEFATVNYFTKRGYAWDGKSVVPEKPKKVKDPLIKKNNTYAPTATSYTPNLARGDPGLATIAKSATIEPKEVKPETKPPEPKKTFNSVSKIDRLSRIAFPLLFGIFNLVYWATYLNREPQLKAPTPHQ
T1 sequence (P18507 40-475): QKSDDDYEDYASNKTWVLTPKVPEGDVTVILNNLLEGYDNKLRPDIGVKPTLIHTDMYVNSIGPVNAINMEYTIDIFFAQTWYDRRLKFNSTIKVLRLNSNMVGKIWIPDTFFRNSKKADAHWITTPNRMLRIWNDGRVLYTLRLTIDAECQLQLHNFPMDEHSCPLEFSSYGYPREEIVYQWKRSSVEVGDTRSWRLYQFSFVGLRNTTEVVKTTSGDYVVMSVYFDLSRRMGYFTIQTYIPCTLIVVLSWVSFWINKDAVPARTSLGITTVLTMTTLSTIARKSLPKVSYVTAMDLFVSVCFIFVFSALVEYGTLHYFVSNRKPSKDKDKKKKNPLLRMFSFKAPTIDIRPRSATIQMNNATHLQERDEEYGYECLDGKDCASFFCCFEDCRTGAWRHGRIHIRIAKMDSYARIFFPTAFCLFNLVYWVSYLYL

Row | Compound | two-electrode voltage clamp; potentiation of EC5 GABA currents, reversed by naph [1] | also measured
1 | OCC(Cl)(Cl)Cl [2,2,2-Trichloroethanol] | ~ 2 mM | –
2 | CCOC(=O)Nc1ccc(NCc2c(C)cc(C)cc2C)cc1N [AA29504] | ~ 1 μM | –
3 | CC(=O)[C@H]1CC[C@H]2[C@@H]3CC[C@H]4C[C@H](O)CC[C@]4(C)[C@H]3C(=O)C[C@]12C [Alphaxalone] | ~ 2 μM | –
4 | FC(F)OC(Cl)C(F)(F)F (stereo not shown) [Isoflurane] | ~ 1.5 mM | –
5 | Cl/C(=C\n1cncn1)c1ccc(Cl)cc1Cl [Loreclezole] | ~ 10 μM | –
6 | NCc1cc(=O)[nH]o1 [Muscimol] | – | two-electrode voltage clamp; potentiation of EC5 GABA currents, not reversed by [2]: ~ 3 μM
7 | naphthalene-etomidate | – | pIC50 [3]: 4.12
